Assay results from patent publication US11279737B2, “Antimicrobial peptide variants and uses thereof” (ANTINBIO, INC., priority 2019, dated 2022).
Converted amounts (≈) assume the structure as drawn. Where a SMILES comes first, the peptide text is derived from it. Bridges are numbered along the chain shown (N, C = ends).

Assays:
S. aureus ATCC 6538 [1] = settings: for Minimal inhibitory concentration (MIC): ATCC 6538; for antimicrobial activity compared to wild type hegrisin (in words): S. aureus ATCC 6538, lower MIC values
[2] = test system: S. aureus MRSA ATCC 43300; settings: for Minimal inhibitory concentration (MIC): ATCC 43300; for antimicrobial activity compared to wild type hegrisin (in words): S. aureus MRSA ATCC 43300
[3] = test system: S. epidermidis ATCC 14990; settings: for Minimal inhibitory concentration (MIC): ATCC 14990
S. aureus ATCC 6538 [4] = assay: inhibition zone assay; settings: 10 μg peptide per hole, 37° C., 16-18 hours
human erythrocytes = assay: hemolytic assay; format: cell-based; settings: FIG. 2; for cell lysis (hemolysis) of human erythrocytes: peptide 0.5-500 μg/ml, 37° C., 60 minutes
Procedure: For the hemolysis assays, human erythrocytes were obtained from healthy donors, washed 3 times using sterilized PBS and re-suspended to a concentration of 2% (v/v) with PBS. The hegrisin, HCN2016-01 peptide, and plectasin (control) were diluted to concentrations of 500, 250, 125, 62.5, 32, 16, 8, 4, 2, 1, and 0.5 μg/ml. A 100 μL solution of each peptide and a 100 μL suspension of red blood cells were mixed and added to the wells of a 96-well plate. PBS was used as negative control and Triton X-100 was used as a positive control.
The samples were incubated at 37° C. for 60 minutes and gently stirred during the incubation period. Then, the samples were centrifuged at 2000 rpm for 5 minutes. A total of 100 μL of the supernatant in each well was transferred to a new 96-well plate and absorbance was measured at 490 nm using a microplate reader (Molecular Devices, USA).
For hemolysis assays, human erythrocytes were obtained from healthy donors, washed 3 times using sterilized PBS, and re-suspended to a concentration of 2% (v/v) with PBS. The HCN2016-01 peptide (SEQ ID NO: 2) and plectasin (control) were diluted to concentrations of 500; 250; 125; 62.5; 32; 16; 8; 4; 2; 1; and 0.5 μg/ml. A 100 μL of each peptide solution was mixed with a 100 μL solution of a red blood cell suspension and added to separate wells of a 96-well plate. PBS was used as negative control and Triton X-100 was used as a positive control. The samples were incubated at 37° C. for 60 minutes and gently stirred during the incubation period. The samples were then centrifuged at 2000 rpm for 5 minutes. A total of 100 μL of the supernatant in each well was transferred to a new 96-well plate and absorbance was measured at 490 nm using a microplate reader (Molecular Devices, USA).

Row | Compound | Minimal inhibitory concentration (MIC) (S. aureus ATCC 6538 [1]) | antimicrobial activity compared to wild type hegrisin (in words) (S. aureus ATCC 6538 [1]) | Minimal inhibitory concentration (MIC) [2] | Minimal inhibitory concentration (MIC) [3] | Activity (antimicrobial activity relative to unmodified hegrisin, zones of growth inhibition) (S. aureus ATCC 6538 [4]) | antimicrobial activity compared to wild type hegrisin (in words) [2] | antimicrobial activity compared to wild type hegrisin (in words) ([3]; S. epidermidis ATCC 14990) | cell lysis (hemolysis) of human erythrocytes (human erythrocytes) | change of cell lysis with rising concentration (human erythrocytes; concentration increased from 62.5 μg/ml to 500 μg/ml)
1 | CC[C@H](C)[C@@H]1NC(=O)CNC(=O)CNC(=O)[C@H](Cc2ccccc2)NC(=O)[C@H](CCCCN)NC(=O)[C@@H]2CSSC[C@H](NC(=O)[C@H](CO)NC(=O)[C@H](Cc3c[nH]c4ccccc34)NC(=O)CN)C(=O)N[C@@H](CC(N)=O)C(=O)N[C@@H]([C@@H](C)CC)C(=O)N[C@@H](Cc3c[nH]c4ccccc34)C(=O)NCC(=O)NCC(=O)N[C@@H](CC(N)=O)C(=O)N[C@@H](CC(=O)O)C(=O)N[C@@H](CCC(=O)O)C(=O)N3CCC[C@H]3C(=O)N[C@H]3CSSC[C@H](NC1=O)C(=O)N[C@@H](CCCCN)C(=O)N[C@H](C(=O)N[C@@H](Cc1ccc(O)cc1)C(=O)O)CSSC[C@H](NC(=O)[C@H](Cc1c[nH]cn1)NC(=O)[C@H](CCC(N)=O)NC(=O)[C@H](Cc1c[nH]cn1)NC3=O)C(=O)N[C@@H](CCCCN)C(=O)N[C@@H](CO)C(=O)N[C@@H]([C@@H](C)CC)C(=O)N[C@@H](CCCNC(=N)N)C(=O)NCC(=O)N[C@@H](Cc1ccc(O)cc1)C(=O)N[C@@H](CCCNC(=N)N)C(=O)NCC(=O)NCC(=O)N[C@@H](Cc1ccc(O)cc1)C(=O)N2 [HCN2016-02] (H-GWSCNIWGGNDEPCHQHCKSIRGYRGGYCKFGGICKCY-OH; disulfide 4-29, 14-35, 18-37 (inferred); N-terminus and C-terminus assumed) | 1.40 µg/mL (≈ 0.327 µM) | improved antimicrobial activity | 2.80 µg/mL (≈ 0.654 µM) | 1.40 µg/mL (≈ 0.327 µM) | 2 | – | – | – | –
2 | CC[C@H](C)[C@@H]1NC(=O)[C@H](CO)NC(=O)[C@H](CCCCN)NC(=O)[C@@H]2CSSC[C@@H](C(=O)N[C@@H](Cc3ccc(O)cc3)C(=O)O)NC(=O)[C@H](CCCCN)NC(=O)[C@@H]3CSSC[C@H](NC(=O)[C@@H]4CCCN4C(=O)[C@H](CCCCN)NC(=O)[C@H](CC(=O)O)NC(=O)[C@H](CC(N)=O)NC(=O)CNC(=O)CNC(=O)[C@H](Cc4ccccc4)NC(=O)[C@H]([C@@H](C)CC)NC(=O)[C@H]([C@@H](C)O)NC(=O)[C@@H](NC(=O)CNC(=O)[C@H](Cc4ccccc4)NC(=O)CN)CSSC[C@H](NC(=O)[C@H](Cc4ccc(O)cc4)NC(=O)CNC(=O)CNC(=O)[C@H](CCCCN)NC(=O)[C@H](Cc4ccc(O)cc4)NC(=O)CNC(=O)[C@H](CCCCN)NC1=O)C(=O)N[C@@H](CCCCN)C(=O)N[C@@H](C(C)C)C(=O)NCC(=O)NCC(=O)N[C@@H](C(C)C)C(=O)N3)C(=O)N[C@@H](Cc1c[nH]cn1)C(=O)N[C@@H](CCCNC(=N)N)C(=O)N[C@@H](Cc1c[nH]cn1)C(=O)N2 [HCN2016-03] (H-GFGCTIFGGNDKPCHRHCKSIKGYKGGYCKVGGVCKCY-OH; disulfide 4-29, 14-35, 18-37 (inferred); N-terminus and C-terminus assumed) | 1.33 µg/mL (≈ 0.327 µM) | improved antimicrobial activity | 0.81 µg/mL (≈ 0.199 µM) | 1.30 µg/mL (≈ 0.32 µM) | 2 | improved antimicrobial activity | – | – | –
3 | CC[C@H](C)[C@@H]1NC(=O)CNC(=O)CNC(=O)[C@H](CC(C)C)NC(=O)[C@H](CCCCN)NC(=O)[C@@H]2CSSC[C@H](NC(=O)[C@H](CO)NC(=O)[C@H](Cc3c[nH]c4ccccc34)NC(=O)CN)C(=O)NCC(=O)N[C@@H](Cc3ccccc3)C(=O)N[C@@H](Cc3ccccc3)C(=O)NCC(=O)NCC(=O)N[C@@H](CC(N)=O)C(=O)N[C@@H](CC(=O)O)C(=O)N[C@@H](CCC(=O)O)C(=O)N3CCC[C@H]3C(=O)N[C@H]3CSSC[C@H](NC1=O)C(=O)N[C@@H](CCCCN)C(=O)N[C@H](C(=O)N[C@@H](Cc1ccc(O)cc1)C(=O)O)CSSC[C@H](NC(=O)[C@H](Cc1c[nH]cn1)NC(=O)[C@H](CCC(N)=O)NC(=O)[C@H](Cc1c[nH]cn1)NC3=O)C(=O)N[C@@H](CCCCN)C(=O)N[C@@H](CO)C(=O)N[C@@H]([C@@H](C)CC)C(=O)N[C@@H](CCCNC(=N)N)C(=O)NCC(=O)N[C@@H](Cc1ccc(O)cc1)C(=O)N[C@@H](CCCNC(=N)N)C(=O)NCC(=O)NCC(=O)N[C@@H](Cc1ccc(O)cc1)C(=O)N2 [HCN2016-04] (H-GWSCGFFGGNDEPCHQHCKSIRGYRGGYCKLGGICKCY-OH; disulfide 4-29, 14-35, 18-37 (inferred); N-terminus and C-terminus assumed) | 0.40 µg/mL (≈ 0.0956 µM) | improved antimicrobial activity | 0.86 µg/mL (≈ 0.206 µM) | 0.33 µg/mL (≈ 0.0789 µM) | 2 | improved antimicrobial activity | improved antimicrobial activity | – | –
4 | CC[C@H](C)[C@@H]1NC(=O)CNC(=O)CNC(=O)[C@H](Cc2ccccc2)NC(=O)[C@H](CCCCN)NC(=O)[C@@H]2CSSC[C@H](NC(=O)CNC(=O)[C@H](Cc3c[nH]c4ccccc34)NC(=O)CN)C(=O)NCC(=O)N[C@@H](Cc3ccccc3)C(=O)N[C@@H](Cc3ccccc3)C(=O)NCC(=O)NCC(=O)N[C@@H](CC(N)=O)C(=O)N[C@@H](CC(=O)O)C(=O)N[C@@H](CCC(=O)O)C(=O)N3CCC[C@H]3C(=O)N[C@H]3CSSC[C@H](NC1=O)C(=O)N[C@@H](CCCCN)C(=O)N[C@H](C(=O)N[C@@H](Cc1ccc(O)cc1)C(=O)O)CSSC[C@H](NC(=O)[C@H](Cc1c[nH]cn1)NC(=O)[C@H](CCC(N)=O)NC(=O)[C@H](Cc1c[nH]cn1)NC3=O)C(=O)N[C@@H](CCCCN)C(=O)N[C@@H](CO)C(=O)N[C@@H]([C@@H](C)CC)C(=O)N[C@@H](CCCNC(=N)N)C(=O)NCC(=O)N[C@@H](Cc1ccc(O)cc1)C(=O)N[C@@H](CCCNC(=N)N)C(=O)NCC(=O)NCC(=O)N[C@@H](Cc1ccc(O)cc1)C(=O)N2 [HCN2016-05] (H-GWGCGFFGGNDEPCHQHCKSIRGYRGGYCKFGGICKCY-OH; disulfide 4-29, 14-35, 18-37 (inferred); N-terminus and C-terminus assumed) | 1.44 µg/mL (≈ 0.344 µM) | improved antimicrobial activity | 2.88 µg/mL (≈ 0.688 µM) | 2.80 µg/mL (≈ 0.669 µM) | 2 | – | – | – | –
5 | CC[C@H](C)[C@@H]1NC(=O)[C@H](CO)NC(=O)[C@H](CCCCN)NC(=O)[C@@H]2CSSC[C@@H](C(=O)N[C@@H](Cc3ccc(O)cc3)C(=O)O)NC(=O)[C@H](CCCCN)NC(=O)[C@@H]3CSSC[C@H](NC(=O)[C@@H]4CCCN4C(=O)[C@H](CCCCN)NC(=O)[C@H](CC(=O)O)NC(=O)[C@H](CC(N)=O)NC(=O)CNC(=O)CNC(=O)[C@H](Cc4c[nH]c5ccccc45)NC(=O)[C@H]([C@@H](C)CC)NC(=O)[C@H]([C@@H](C)O)NC(=O)[C@@H](NC(=O)CNC(=O)[C@H](Cc4ccccc4)NC(=O)CN)CSSC[C@H](NC(=O)[C@H](Cc4ccc(O)cc4)NC(=O)CNC(=O)CNC(=O)[C@H](CCCCN)NC(=O)[C@H](Cc4ccc(O)cc4)NC(=O)CNC(=O)[C@H](CCCCN)NC1=O)C(=O)N[C@@H](CCCCN)C(=O)N[C@@H](C(C)C)C(=O)NCC(=O)NCC(=O)N[C@@H](C(C)C)C(=O)N3)C(=O)N[C@@H](Cc1c[nH]cn1)C(=O)N[C@@H](CCCNC(=N)N)C(=O)N[C@@H](Cc1c[nH]cn1)C(=O)N2 [Hegrisin, reference compound] (H-GFGCTIWGGNDKPCHRHCKSIKGYKGGYCKVGGVCKCY-OH; disulfide 4-29, 14-35, 18-37; N-terminus and C-terminus assumed) | 1.67 µg/mL (≈ 0.407 µM) | – | 1.34 µg/mL (≈ 0.326 µM) | 0.38 µg/mL (≈ 0.0926 µM) | 1 | – | – | no significant lysis | –
6 | plectasin: defensin antimicrobial peptide isolated from the mushroom Pseudoplectania nigrella; control in the hemolysis assay (GFGCNGPWDEDDMQCHNHCKSIKGYKGGYCAKGGFVCKCY; PLECTASIN) | – | – | – | – | – | – | – | lysis at nearly all concentrations | increased significantly
